Assay results from patent US4298375A, “2-Substituted-5-phenyl-4-thiazolecarboxylic acids and their derivatives as safening agents” (Monsanto Company, priority 1979, dated 1981).

Assays:
Assay type in all cases: in vivo
sorghum [1] = test: Example 6: herbicidal effect on sorghum of alachlor with or without safening agent, soil treated with mixture, approximately 21 days; settings: for safening when tested in accordance with the procedure of Example 6: alachlor
Procedure: (§1) A good grade of top soil was placed in a plastic pot and compacted to a depth of approximately 1.27 cm. from the top of said pot. A predetermined number of sorghum seeds and weed seeds were placed on top of the soil. A cover layer, approximately 1.27 cm., was placed on top of said seeds. The soil was then treated with a mixture of the safening agent and alachlor dispersed or dissolved in a suitable solvent. For each test series, pots were treated with only the herbicide. Additionally, pots were treated with only the safening agent. The herbicidal effect was observed approximately 21 days after treatment. Table IV summarizes the results obtained when the compounds of the invention were tested in accordance with the procedure of Example 6. Note that in each test a control is used in which the sorghum plants are treated with various rates of alachlor herbicide alone.

sorghum [2] = test: Example 5: safening against triallate, alachlor or butachlor, safener and herbicide incorporated in soil, greenhouse, approximately 21 days; set-up: key: (herbicide alone + safener alone, capped at 100) minus combination effect; settings: safening agent 8.96 kg/h
Procedure: A good grade of top soil is placed in a container and compacted to a depth of approximately 1.27 cm. from the top of said container. A predetermined number of sorghum seeds to be tested are placed on top of the soil. A quantity of soil sufficient to substantially fill the container is measured and placed in a second container. A measured quantity of the safening agent dispersed or dissolved in a suitable carrier is applied to the soil in the second container. A measured quantity of triallate, alachlor or butachlor herbicide dispersed or dissolved in a suitable carrier is then sprayed on the soil already treated with the safening agent. The soil containing the safening agent and the herbicide is thoroughly mixed. This mixing is sometimes referred to as incorporation of the herbicide and safening agent into the soil. The mixing or incorporation provides a substantially uniform distribution of the safening agent and herbicide throughout the soil. The sorghum seeds are covered with the soil containing the safening agent and herbicide and the pans are leveled. The pans are then placed on a sand bench in the greenhouse and watered from below as needed. The sorghum plants are observed at the end of approximately 21 days and the results in terms of percent inhibition of each seed lot are recorded. For each test series a pan of plants is also prepared containing no herbicide and no safening agent as a control. Additionally, for each test, a pan of plants is prepared with soil covering the seed containing no herbicide and only the measured amount of safening agent being incorporated into the soil covering the seeds to ascertain any herbicidal effect of the safening agent alone. For each series of tests the herbicidal effect of the herbicide is observed from pans of sorghum plants tested with the same quantity of herbicide alone. The "safening effect" is determined by adding the herbicidal effect of the herbicide when applied alone to the herbicidal effect of the safening agent when applied alone (in no instance, however, will this sum be greater than 100) and subtracting from that the herbicidal effect obtained when the herbicide and safening agent are incorporated into the soil as discussed above.

Green Foxtail = test: Example 6: herbicidal effect on weed (Green Foxtail) of alachlor with or without safening agent, soil treated with mixture, approximately 21 days
Procedure: as §1

[3] = safening agent 8.96 kg/h + alachlor 0.56 kg/h
[4] = safening agent 8.96 kg/h + alachlor 1.12 kg/h
[5] = safening agent 8.96 kg/h + alachlor 4.48 kg/h
[6] = safening agent 8.96 kg/h alone, alachlor 0.00 kg/h
[7] = safening agent 9.96 kg/h (so in the source) + alachlor, rate not printed on this line (line below 4.48 kg/h)
[8] = alachlor 2.24 kg/h, (herbicide alone + safener alone) minus combination
[9] = butachlor 6.72 kg/h, value given as symbol *
[10] = triallate 0.56 kg/h, (herbicide alone + safener alone) minus combination
[11] = butachlor 6.72 kg/h, (herbicide alone + safener alone) minus combination
[12] = safening agent 8.96 kg/h + alachlor 2.24 kg/h
[13] = alachlor alone 0.56 kg/h, no safening agent, first test
[14] = alachlor alone 0.56 kg/h, no safening agent, second test
[15] = alachlor alone 1.12 kg/h, no safening agent, first test
[16] = alachlor alone 1.12 kg/h, no safening agent, second test
[17] = alachlor alone 2.24 kg/h, no safening agent, first test
[18] = alachlor alone 2.24 kg/h, no safening agent, second test
[19] = alachlor alone 4.48 kg/h, no safening agent, first test
[20] = alachlor alone 4.48 kg/h, no safening agent, second test

Compound | % Inhibition Sorghum (sorghum [1]; [3]) [%] | % Inhibition Sorghum (sorghum [1]; [4]) [%] | % Inhibition Sorghum (sorghum [1]; [5]) [%] | % Inhibition Sorghum (sorghum [1]; [6]) [%] | Safening Effect (sorghum [2]; [8]) | Safening Effect (sorghum [2]; [9]) | Safening Effect (sorghum [2]; [10]) | % Inhibition Green Foxtail (Green Foxtail; [3]) [%] | % Inhibition Green Foxtail (Green Foxtail; [4]) [%] | % Inhibition Green Foxtail (Green Foxtail; [5]) [%] | % Inhibition Green Foxtail (Green Foxtail; [6]) [%] | safening when tested in accordance with the procedure of Example 6 (sorghum [1]) | Safening Effect (sorghum [2]; [11]) | also measured
COC(=O)c1nc(OC)sc1-c1ccccc1 [Example 3, Methyl 2-Methoxy-5-Phenyl-4-Thiazolecarboxylate] | 50 | 65 | 40 | 0 | 23 | * (Observed safening effect was less than 19.) | 37 | 100 | 100 | 100 | 0 |  |  | % Inhibition Sorghum (sorghum [1]; [7]): 75%; % Inhibition Green Foxtail (Green Foxtail; [7]): 100%
COC(=O)c1nc(N)sc1-c1ccccc1 [Example 1, Methyl 2-Amino-5-Phenyl-4-Thiazolecarboxylate] |  |  |  |  | 24 |  | 56 |  |  |  |  | no significant safenin | 35 | 
COC(=O)c1nc(Cl)sc1-c1ccccc1 [Example 2, Methyl 2-Chloro-5-Phenyl-4-Thiazolecarboxylate] | 30 | 65 | 70 | 0 | 20 |  | 45 | 100 | 100 | 100 | 0 |  | 40 | % Inhibition Sorghum (sorghum [1]; [12]): 70%; % Inhibition Green Foxtail (Green Foxtail; [12]): 100%
CCc1cccc(CC)c1N(COC)C(=O)CCl [Alachlor, 2-chloro-2',6'-diethyl-N-(methoxymethyl)acetanilide, reference compound] |  |  |  |  |  |  |  |  |  |  |  |  |  | % Inhibition Sorghum (sorghum [1]; [13]): 80%; % Inhibition Sorghum (sorghum [1]; [14]): 80%; % Inhibition Sorghum (sorghum [1]; [15]): 85%; % Inhibition Sorghum (sorghum [1]; [16]): 85%; % Inhibition Sorghum (sorghum [1]; [17]): 90%; % Inhibition Sorghum (sorghum [1]; [18]): 85%; % Inhibition Sorghum (sorghum [1]; [19]): 95%; % Inhibition Sorghum (sorghum [1]; [20]): 100%; % Inhibition Green Foxtail (Green Foxtail; [13]): 98%; % Inhibition Green Foxtail (Green Foxtail; [14]): 98%; % Inhibition Green Foxtail (Green Foxtail; [15]): 99%; % Inhibition Green Foxtail (Green Foxtail; [16]): 98%; % Inhibition Green Foxtail (Green Foxtail; [17]): 100%; % Inhibition Green Foxtail (Green Foxtail; [18]): 98%; % Inhibition Green Foxtail (Green Foxtail; [19]): 100%; % Inhibition Green Foxtail (Green Foxtail; [20]): 100%
COC(=O)c1nc(Sc2ccccc2)sc1-c1ccccc1 [Example 4, Methyl 5-Phenyl-2-Phenylthio-4-Thiazolecarboxylate] |  |  |  |  | 20 | * (Observed safening effect was less than 19.) | 35 |  |  |  |  | no significant safenin |  | 
